Laboratory results published in ChEMBL document CHEMBL1124488 (J Med Chem, 1989).

Biological target: Mu-type opioid receptor (Cavia porcellus, UniProt P97266)
Assay: Inhibitory activity against opioid receptor mu of guinea pig brain using [3H]DAGO radioligand

Sequence of Mu-type opioid receptor (P97266 whole entry): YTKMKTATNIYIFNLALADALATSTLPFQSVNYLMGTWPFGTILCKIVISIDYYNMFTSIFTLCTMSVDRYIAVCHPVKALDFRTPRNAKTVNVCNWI

Work on CN1CC[C@]23CCCC[C@H]2[C@H]1Cc1ccc(O)cc13 [LEVORPHANOL] yielded an IC50 of 0.6 nM.
